The values below come from patent US11427548B2 (Arvinas Operations, Inc., priority 2015, dated 2022).

A value given as a limit tells only on which side of the number the result lay.

The assay deals with T1, Androgen Receptor (Homo sapiens, UniProt P10275).
T1 construct: endogenous in cells; host or cells: VCaP cells
T1 sequence (P10275 1-920): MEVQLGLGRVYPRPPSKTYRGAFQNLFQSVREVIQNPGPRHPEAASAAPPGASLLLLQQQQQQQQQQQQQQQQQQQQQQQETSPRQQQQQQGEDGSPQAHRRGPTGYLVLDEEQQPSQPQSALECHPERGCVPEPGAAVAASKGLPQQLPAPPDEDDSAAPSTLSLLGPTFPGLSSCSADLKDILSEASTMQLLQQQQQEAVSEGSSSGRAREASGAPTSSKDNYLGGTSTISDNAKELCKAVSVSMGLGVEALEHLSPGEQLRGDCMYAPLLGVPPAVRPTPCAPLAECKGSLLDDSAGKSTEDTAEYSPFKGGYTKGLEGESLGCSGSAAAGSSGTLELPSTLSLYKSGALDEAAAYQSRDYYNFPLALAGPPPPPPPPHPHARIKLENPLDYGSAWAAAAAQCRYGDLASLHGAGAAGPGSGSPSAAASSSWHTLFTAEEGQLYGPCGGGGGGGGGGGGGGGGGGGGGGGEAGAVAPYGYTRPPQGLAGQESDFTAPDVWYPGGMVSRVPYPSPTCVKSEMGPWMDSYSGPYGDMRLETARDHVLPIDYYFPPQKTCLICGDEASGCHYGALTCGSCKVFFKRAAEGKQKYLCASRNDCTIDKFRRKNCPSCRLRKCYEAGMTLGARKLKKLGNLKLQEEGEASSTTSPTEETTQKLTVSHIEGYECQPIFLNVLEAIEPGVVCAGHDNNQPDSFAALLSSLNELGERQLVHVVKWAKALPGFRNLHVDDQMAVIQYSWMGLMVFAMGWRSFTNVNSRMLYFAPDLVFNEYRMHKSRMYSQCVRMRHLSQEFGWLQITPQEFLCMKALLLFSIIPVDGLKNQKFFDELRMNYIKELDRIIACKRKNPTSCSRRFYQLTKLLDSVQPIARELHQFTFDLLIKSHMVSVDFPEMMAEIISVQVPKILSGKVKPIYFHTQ
As to the kind of experiment: Androgen Receptor ELISA assay (PathScan AR ELISA) in VCaP cells: AR degradation, Dmax and DC50. The assay is classed as cell-based. The settings on record: VCaP cells (Table 32); for Dmax: VCaP, highest percentage of Androgen Receptor degradation observed, read-out: VCaP Dmax (%); for DC50: concentration that caused 50% Androgen Receptor degradation, read-out: VCaP DC50. In short, it runs like this:
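VCaP cells in phenol red-free RPMI with 5% charcoal-stripped FBS were grown at least 3 days, then given compound as 7 half-log doses in 0.1% DMSO with 0.1 nM R1881 for 24 h. Lysates went into a sandwich AR ELISA with TMB read at 450 nm.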

For orientation: Dmax means the greatest extent of degradation seen. As a reminder, the DC50 is the concentration giving 50% degradation. For `Cc1ncoc1-c1ccc([C@H](C)NC(=O)[C@@H]2C[C@@H](O)CN2C(=O)[C@@H](NC(=O)COCCCCOc2ccc(C(=O)N[C@H]3C(C)(C)[C@H](Oc4ccc(C#N)c(Cl)c4)C3(C)C)cc2)C(C)(C)C)cc1` [Example 168, (2S,4R)-1-[(2S)-3,3-dimethyl-2-{2-[4-(4-{[trans-3-(3-chloro-4-cyanophenoxy)-2,2,4,4-tetramethylcyclobutyl]carbamoyl}phenoxy)butoxy]acetamido}butanoyl]-4-hydroxy-N-[(1S)-1-[4-(4-methyl-1,3-oxazol-5-yl)phenyl]ethyl]pyrrolidine-2-carboxamide], the Dmax was > 71% and the DC50 was < 50 nM.

Consider `Cc1ncsc1-c1ccc([C@@H](C)NC(=O)[C@@H]2C[C@@H](O)CN2C(=O)[C@@H](NC(=O)COCCCCOc2ccc(C(=O)N[C@H]3C(C)(C)[C@H](Oc4ccc(C#N)c(Cl)c4)C3(C)C)cc2)C(C)(C)C)cc1` [Example 171, (2S,4R)-1-[(2S)-3,3-dimethyl-2-{2-[4-(4-{[trans-3-(3-chloro-4-cyanophenoxy)-2,2,4,4-tetramethylcyclobutyl]carbamoyl}phenoxy)butoxy]acetamido}butanoyl]-4-hydroxy-N-[(1R)-1-[4-(4-methyl-1,3-thiazol-5-yl)phenyl]ethyl]pyrrolidine-2-carboxamide], for which the Dmax lay in the range of 26 to 50% and the DC50 is < 50 nM.

For `Cc1ncoc1-c1ccc(CNC(=O)[C@@H]2C[C@@H](O)CN2C(=O)[C@@H](NC(=O)COCCCCCNc2ccc(C(=O)N[C@H]3C(C)(C)[C@H](Oc4ccc(C#N)c(Cl)c4)C3(C)C)cc2)C(C)(C)C)cc1` [Example 173, (2S,4R)-1-[(2S)-3,3-dimethyl-2-[2-({5-[(4-{[trans-3-(3-chloro-4-cyanophenoxy)-2,2,4,4-tetramethylcyclobutyl]carbamoyl}phenyl)amino]pentyl}oxy)acetamido]butanoyl]-4-hydroxy-N-{[4-(4-methyl-1,3-oxazol-5-yl)phenyl]methyl}pyrrolidine-2-carboxamide], the Dmax is > 71% and the DC50 was < 50 nM.

For the molecule `Cc1ncsc1-c1ccc(CNC(=O)[C@@H]2C[C@@H](O)CN2C(=O)[C@@H](NC(=O)COCCCCNc2ccc(C(=O)N[C@H]3C(C)(C)[C@H](Oc4ccc(C#N)c(Cl)c4)C3(C)C)cc2)C(C)(C)C)cc1` [Example 175, (2S,4R)-1-[(2S)-3,3-dimethyl-2-(2-{4-[(4-{[trans-3-(3-chloro-4-cyanophenoxy)-2,2,4,4-tetramethylcyclobutyl]carbamoyl}phenyl)amino]butoxy}acetamido)butanoyl]-4-hydroxy-N-{[4-(4-methyl-1,3-thiazol-5-yl)phenyl]methyl}pyrrolidine-2-carboxamide], the maximal degradation (Dmax) was in the range of 51 to 70% and the DC50 was < 50 nM.

As to `Cc1ncsc1-c1ccc(CNC(=O)[C@@H]2C[C@@H](O)CN2C(=O)[C@@H](NC(=O)COCCCCCNc2ccc(C(=O)N[C@H]3C(C)(C)[C@H](Oc4ccc(C#N)c(Cl)c4)C3(C)C)cc2F)C(C)(C)C)cc1` [Example 176, (2S,4R)-1-[(2S)-2-[2-({5-[(2-fluoro-4-{[trans-3-(3-chloro-4-cyanophenoxy)-2,2,4,4-tetramethylcyclobutyl]carbamoyl}phenyl)amino]pentyl}oxy)acetamido]-3,3-dimethylbutanoyl]-4-hydroxy-N-{[4-(4-methyl-1,3-thiazol-5-yl)phenyl]methyl} pyrrolidine-2-carboxamide], the Dmax is > 71% and the DC50 was < 50 nM.

On to `Cc1ncsc1-c1ccc([C@H](C)NC(=O)[C@@H]2C[C@@H](O)CN2C(=O)[C@@H](NC(=O)COCCCCNc2ccc(C(=O)N[C@H]3C(C)(C)[C@H](Oc4ccc(C#N)c(Cl)c4)C3(C)C)cc2)C(C)(C)C)cc1` [Example 177, (2S,4R)-1-[(2S)-3,3-dimethyl-2-(2-{4-[(4-{[trans-3-(3-chloro-4-cyanophenoxy)-2,2,4,4-tetramethylcyclobutyl]carbamoyl}phenyl)amino]butoxy}acetamido)butanoyl]-4-hydroxy-N-[(1S)-1-[4-(4-methyl-1,3-thiazol-5-yl)phenyl]ethyl]pyrrolidine-2-carboxamide], for which the maximal degradation (Dmax) is > 71% and the DC50 was < 50 nM.

As for `Cc1ncsc1-c1ccc([C@@H](C)NC(=O)[C@@H]2C[C@@H](O)CN2C(=O)[C@@H](NC(=O)COCCCCNc2ccc(C(=O)N[C@H]3C(C)(C)[C@H](Oc4ccc(C#N)c(Cl)c4)C3(C)C)cc2)C(C)(C)C)cc1` [Example 178, (2S,4R)-1-[(2S)-3,3-dimethyl-2-(2-{4-[(4-{[trans-3-(3-chloro-4-cyanophenoxy)-2,2,4,4-tetramethylcyclobutyl]carbamoyl}phenyl)amino]butoxy}acetamido)butanoyl]-4-hydroxy-N-[(1R)-1-[4-(4-methyl-1,3-thiazol-5-yl)phenyl]ethyl]pyrrolidine-2-carboxamide], the Dmax was 26 to 50% and the DC50 is < 50 nM.

As for `Cc1ncoc1-c1ccc(CNC(=O)[C@@H]2C[C@@H](O)CN2C(=O)[C@@H](NC(=O)CCCOc2ccc(-c3ccc(C(=O)N[C@H]4C(C)(C)[C@H](Oc5ccc(C#N)c(Cl)c5)C4(C)C)cc3)cc2)C(C)(C)C)cc1` [Example 180], the Dmax was > 71% and the DC50 was < 50 nM.

For the molecule `Cc1ncoc1-c1ccc(CNC(=O)[C@@H]2C[C@@H](O)CN2C(=O)[C@@H](NC(=O)COCCOc2ccc(-c3ccc(C(=O)N[C@H]4C(C)(C)[C@H](Oc5ccc(C#N)c(Cl)c5)C4(C)C)cc3)cc2)C(C)(C)C)cc1` [Example 181], the Dmax is > 71% and the DC50 is < 50 nM.

Consider `Cc1ncoc1-c1ccc(CNC(=O)[C@@H]2C[C@@H](O)CN2C(=O)[C@@H](NC(=O)COCc2ccc(Oc3ccc(C(=O)N[C@H]4C(C)(C)[C@H](Oc5ccc(C#N)c(Cl)c5)C4(C)C)cc3)cc2)C(C)(C)C)cc1` [Example 184, (2S,4R)-1-[(2S)-3,3-dimethyl-2-(2-{[4-(4-{[(1r,3r)-3-(3-chloro-4-cyanophenoxy)-2,2,4,4-tetramethylcyclobutyl]carbamoyl}phenoxy)phenyl]methoxy}acetamido)butanoyl]-4-hydroxy-N-{[4-(4-methyl-1,3-oxazol-5-yl)phenyl]methyl}pyrrolidine-2-carboxamide], for which the Dmax is > 71% and the DC50 was < 50 nM.

As for `Cc1ncsc1-c1ccc(CNC(=O)[C@@H]2C[C@@H](O)CN2C(=O)[C@@H](NC(=O)COCCOc2ccc(Oc3ccc(C(=O)N[C@H]4C(C)(C)[C@H](Oc5ccc(C#N)c(Cl)c5)C4(C)C)cc3)cc2)C(C)(C)C)cc1` [Example 185, (2S,4R)-1-[(2S)-3,3-dimethyl-2-(2-{2-[4-(4-{[trans-3-(3-chloro-4-cyanophenoxy)-2,2,4,4-tetramethylcyclobutyl]carbamoyl}phenoxy)phenoxy]ethoxy}acetamido)butanoyl]-4-hydroxy-N-{[4-(4-methyl-1,3-thiazol-5-yl)phenyl]methyl}pyrrolidine-2-carboxamide], the Dmax is > 71% and the half-maximal degradation concentration (DC50) was < 50 nM.

In the case of `Cc1ncoc1-c1ccc(CNC(=O)[C@@H]2C[C@@H](O)CN2C(=O)[C@@H](NC(=O)COCCOc2ccc(Oc3ccc(C(=O)N[C@H]4C(C)(C)[C@H](Oc5ccc(C#N)c(Cl)c5)C4(C)C)cc3)cc2)C(C)(C)C)cc1` [Example 186, (2S,4R)-1-[(2S)-3,3-dimethyl-2-(2-{2-[4-(4-{[trans-3-(3-chloro-4-cyanophenoxy)-2,2,4,4-tetramethylcyclobutyl]carbamoyl}phenoxy)phenoxy]ethoxy}acetamido)butanoyl]-4-hydroxy-N-{[4-(4-methyl-1,3-oxazol-5-yl)phenyl]methyl}pyrrolidine-2-carboxamide], the Dmax was > 71% and the DC50 was < 50 nM.

For `Cc1ncsc1-c1ccc(CNC(=O)[C@@H]2C[C@@H](O)CN2C(=O)[C@@H](NC(=O)CNC(=O)c2ccc(Oc3ccc(C(=O)N[C@H]4C(C)(C)[C@H](Oc5ccc(C#N)c(Cl)c5)C4(C)C)cc3)cc2)C(C)(C)C)cc1` [Example 187, (2S,4R)-1-[(2S)-3,3-dimethyl-2-(2-{[4-(4-{[trans-3-(3-chloro-4-cyanophenoxy)-2,2,4,4-tetramethylcyclobutyl]carbamoyl}phenoxy)phenyl] formamido}acetamido)butanoyl]-4-hydroxy-N-{[4-(4-methyl-1,3-thiazol-5-yl)phenyl]methyl} pyrrolidine-2-carboxamide], the Dmax is > 71% and the half-maximal degradation concentration (DC50) is < 50 nM.

Regarding `Cc1ncsc1-c1ccc(CNC(=O)[C@@H]2C[C@@H](O)CN2C(=O)[C@@H](NC(=O)CNCCCCCOc2ccc(C(=O)N[C@H]3C(C)(C)[C@H](Oc4ccc(C#N)c(Cl)c4)C3(C)C)cc2)C(C)(C)C)cc1` [Example 188], the Dmax was > 71% and the DC50 is < 50 nM.
